What was measured:
IPF fibroblasts = assay: Gene expression in primary fibroblasts isolated from fibrotic lesions of IPF lungs; format: cell-based, human; conditions: naltrexone 10 μM, 24 hrs, vs vehicle
Description: FIG. 10: Naltrexone treatment attenuates ECM and proliferation gene expression in IPF fibroblasts. Expression of ECM genes (FN1, Col3α, and αSMA) and proliferation gene (Aurka) was attenuated in IPF fibroblasts treated with naltrexone (10 μM) compared to vehicle treatment for 24 hrs in IPF fibroblasts. Unpaired t-test (N=3/group; *P<0.05).
We treated primary fibroblasts isolated from fibrotic lesions of IPF lungs. […] These findings are consistent with a mechanism of action for opioid receptor inhibitors (e.g., naltrexone) that influences (e.g., decreases) ECM and proliferation.

TGFα mice [1] = assay: Naltrexone therapy in TGFα-induced pulmonary fibrosis: body weight, lung weight, lung function (FlexiVent); format: in vivo; conditions: 80 mg/kg b.i.d. for three weeks, started after three weeks on Dox, vs vehicle
Description: (§1) FIG. 7: Naltrexone therapy attenuates body weight loss in pulmonary fibrosis. (A) Experimental schemata of naltrexone therapy study in vivo. Three groups of mice on Dox for three weeks were treated with either vehicle or naltrexone (80 mg/kg bodyweight, b.i.d) and then sacrificed after three weeks of treatment while continued on Dox. (B) The loss of body weight was attenuated with naltrexone therapy compared to vehicle treatment in TGFα mice. One-Way ANOVA (N=4−6/group; *P<0.05).
as §1, with “8:” for “7:”, “increase in lung weights” for “body weight loss”, “fibrosis.” for “fibrosis. (A) Experimental schemata of naltrexone therapy study in vivo.”, “Dox.” for “Dox. (B)”, “increase in lung weights” for “loss of body weight”
FIG. 9: Naltrexone therapy attenuates lung function decline in pulmonary fibrosis. Three groups of mice on Dox for three weeks were treated with either vehicle or naltrexone (80 mg/kg bodyweight, b.i.d) and then sacrificed after three weeks of treatment while continued on Dox. Decrease in the lung function (A,
Resistance; B, Compliance; C, Elastance) was attenuated with naltrexone therapy compared to vehicle treatment in TGFα mice. One-Way ANOVA (N=4−6/group; *P<0.05).
(§2) To probe mechanisms of EGFR-mediated lung remodeling, we generated transgenic mice in which TGFα was conditionally overexpressed in the lung epithelium using the CCSP rtTA promoter. When doxycycline (Dox) was administered, overexpression of TGFα in the adult mice (N=4−5 mice/group) caused progressive and extensive adventitial, interstitial, and subpleural fibrosis. Several histological features of fibrosis in the TGFα model were found in the pathologic lesions of IPF, including subpleural fibrosis radiating into the adjoining interstitium and the differentiation of myofibroblasts (FIG. 3). Physiologically, the mice developed progressive cachexia and lung-function decline with gene expression profiles similar to human IPF. The proenkephalin A (PENK) gene that codes for several opioid peptides was elevated in fibrotic lungs during TGFα-induced pulmonary fibrosis (FIG. 4).
Naltrexone therapy attenuates body weight loss in pulmonary fibrosis. […] Three groups of mice (N=4−6 mice/group) were on Dox for three weeks, and were then treated with either vehicle or naltrexone (80 mg/kg bodyweight, b.i.d) along with Dox for another three weeks; six weeks after being on DOX and three weeks after being treated with vehicle or naltrexone, the mice were sacrificed. The down arrow represents initiation of the vehicle or naltrexone treatment and the horizontal arrows indicate the duration of the vehicle or naltrexone treatment (three weeks while continuing to administer Dox).
Naltrexone therapy attenuates increase in lung weights in pulmonary fibrosis. Mice (N=4−6 mice/group) were on Dox for three weeks, and were then treated with either vehicle or naltrexone (80 mg/kg bodyweight, b.i.d) along with Dox for another three weeks; six weeks after being on DOX and three weeks after being treated with vehicle or naltrexone, the mice were sacrificed (See, e.g., FIG. 7A). […] In TGFα mice, increases in lung weight are due to pulmonary fibrosis.
Naltrexone therapy attenuates lung function decline in pulmonary fibrosis. […]

TGFα mice [2] = assay: Short-term naltrexone therapy in TGFα-induced pulmonary fibrosis: total lung RNA gene expression; format: in vivo; conditions: 10 mg/kg or 50 mg/kg b.i.d. for one week, started after two weeks on Dox; vs vehicle
Description: FIG. 6: Naltrexone therapy attenuates ECM and proliferative gene expression in pulmonary fibrosis. (A) Experimental schemata of naltrexone therapy study in vivo. Three groups of mice on Dox for two weeks were treated with either vehicle or naltrexone (10 mg/kg or 50mg/kg bodyweight, b.i.d) and sacrificed after a week of treatment while continued on Dox. Total lung RNA was analyzed for the expression of: (B) ECM genes (FN1, Col5α, and Col6α) and (C) proliferation genes (Aurka, IL-6, and Calcb). One-Way ANOVA (N=4/group; *P<0.05).
as §2
Naltrexone therapy attenuates ECM and proliferative gene expression in pulmonary fibrosis. […] Three groups of mice (N=4 mice/group) on Dox for two weeks were treated with either vehicle or naltrexone (10 mg/kg or 50 mg/kg bodyweight, b.i.d) and sacrificed after a week of treatment while continued on Dox. The down arrow represents initiation of the vehicle or drug treatment (at two weeks on Dox) and the horizontal arrows indicate the duration of vehicle or drug treatment (one week while continuing to administer Dox). […] The RNA from the three ECM genes decreased when treated with naltrexone. […] The RNA from the three proliferation genes decreased when treated with naltrexone.

[3] = treatment of idiopathic pulmonary fibrosis; cited from earlier work
mice = assay: Mouse model of bleomycin-induced pulmonary fibrosis (repetitive intradermal bleomycin); format: in vivo; conditions: bleomycin 6 units per kg intradermally, 5 days a week for 4 wks; vs saline-treated controls
Text: FIG. 5: Mouse model of bleomycin-induced pulmonary fibrosis. Masson's trichrome-stained lung sections show extensive collagen deposition in mice treated intradermally with bleomycin (6 U/kg body weight; 5 days/week for 4 weeks) (B) compared to saline (A).
We developed an alternative mouse model of bleomycin-induced pulmonary fibrosis. For these experiments, we injected mice (N=5 mice/group) intradermally with bleomycin (6 units per kg body weight) for 5 days in a week for a total of 4 wks.

Question: Which “Expression of ECM gene alpha smooth-muscle actin (αSMA)” value (IPF fibroblasts) does the source give for O=C1CC[C@@]2(O)[C@H]3Cc4ccc(O)c5c4[C@@]2(CCN3CC2CC2)[C@H]1O5 [naltrexone, 17-(cyclopropylmethyl)-4,5α-epoxy-3,14-dihydroxymorphinan-6-one] here?
Answer: inhibited

Question: And the “Expression of ECM gene fibronectin 1 (FN1)” value (IPF fibroblasts)?
Answer: inhibited

Question: What about the “Expression of ECM gene procollagen 3α1 (Col3α)” value (IPF fibroblasts) of the same molecule?
Answer: inhibited

Question: And the “Expression of proliferation gene Aurora kinase A (AURKA)” value (IPF fibroblasts)?
Answer: inhibited

Question: And the “Dox-induced changes in lung function: Compliance” value (TGFα mice [1]; FlexiVent)?
Answer: reversed

Question: What about the “Dox-induced changes in lung function: Elastance” value (TGFα mice [1]; FlexiVent) of the same molecule?
Answer: reversed

Question: What about the “Dox-induced changes in lung function: Resistance” value (TGFα mice [1]; FlexiVent) of the same molecule?
Answer: reversed

Question: And the “Increase in lung weights” value (TGFα mice [1])?
Answer: attenuated

Question: What about the “Loss of body weight” value (TGFα mice [1]) of the same molecule?
Answer: attenuated

Question: What about the “Total lung RNA expression of ECM gene Collagen alpha 1 V (Col5α)” value (TGFα mice [2]) of the same molecule?
Answer: decreased

Question: And the “Total lung RNA expression of ECM gene Collagen alpha 1 VI (Col6α)” value (TGFα mice [2])?
Answer: decreased

Question: And the “Total lung RNA expression of ECM gene Fibronectin (FN1)” value (TGFα mice [2])?
Answer: decreased

Question: What about the “Total lung RNA expression of proliferation gene Aurora kinase A (Aurka)” value (TGFα mice [2]) of the same molecule?
Answer: decreased

Question: And the “Total lung RNA expression of proliferation gene Calcitonin Related Polypeptide Beta (Calcb)” value (TGFα mice [2])?
Answer: decreased

Question: And the “Total lung RNA expression of proliferation gene Interleuken 6 (IL-6)” value (TGFα mice [2])?
Answer: decreased

Question: With COC(=O)c1ccc2c(c1)NC(=O)/C2=C(\Nc1ccc(N(C)C(=O)CN2CCN(C)CC2)cc1)c1ccccc1 [nintedanib] as the molecule, how does the Effect on mortality [3] read?
Answer: neither pirfenidone nor nintedanib had any effect

Question: With Cc1ccc(=O)n(-c2ccccc2)c1 [pirfenidone] as the molecule, how does the Effect on mortality [3] read?
Answer: neither pirfenidone nor nintedanib had any effect

Question: And the “Effect on respiratory symptoms” value [3]?
Answer: no effect

Question: What does the source list for bleomycin?
Answer: Increase in airway resistance (mice): greater than two-fold; Increase in lung hydroxyproline levels (mice): greater than two-fold

Source: patent US20190247373A1, “METHODS FOR TREATING FIBROSIS” (CHILDREN'S HOSPITAL MEDICAL CENTER, priority 2016, published 2019)
